Source: patent US20240239813A1, “KRAS INHIBITORS AND PHARMACEUTICAL USES THEREOF” (RISEN (SUZHOU) PHARMA TECH CO., LTD., priority 2022, published 2024)

Molecular target: His-tagged Human KRAS^G12D (Homo sapiens (Human), UniProt P01116, G12D)
Experiment: HTRF KRAS G12D GTP binding assay
Conditions: displacement of GTP-Red tracer
Procedure: KRAS^G12D was used in this assay.
The ability of a test compound to bind to KRAS^G12D was measured by using an HTRF KRAS^G12D GTP Binding Kit (Cisbio, 63ADK000CB27PEG). […] 5 μL of compound solution was added to each well after serial dilution, followed by addition of 5 μL of GDP (50 nM) solution. After 30 minutes incubation at room temperature, 1×6His Eu cryptate antibody solution and GTP-Red tracer were added to the plate, then incubated for another 30 minutes. The HTRF signal was measured with a VICTOR Nivo multimode plate reader according to the manufacturer's instructions. The percent inhibition was calculated using the following formula: […]
(where the “Maximum Signal” are wells containing DMSO without inhibitor; the “Minimum Signal” are wells containing reference inhibitory component (GDP); the “Test compound signal” are wells containing test compound (inhibitor) at established concentrations).
IC50 was determined by fitting percent inhibition at each inhibitor concentration to the four-parameter nonlinear logistic equation using GraphPad Prism.

His-tagged Human KRAS^G12D, sequence (P01116-2 other isoform, or with tags, fused parts or gaps G12D): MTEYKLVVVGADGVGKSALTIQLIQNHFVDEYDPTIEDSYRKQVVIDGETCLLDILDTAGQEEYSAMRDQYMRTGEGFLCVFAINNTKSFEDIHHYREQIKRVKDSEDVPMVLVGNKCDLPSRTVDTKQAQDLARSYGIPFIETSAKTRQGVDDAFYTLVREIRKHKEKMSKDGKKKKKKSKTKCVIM

Row | Compound | IC50
1 | CCc1c(F)ccc2cc(O)cc(-c3ncc4c(N5CCC6(CCOC6)C5)nc(OC[C@@]56CCCN5C[C@H](F)C6)nc4c3F)c12 (some centres unmarked) [Compound 1a] | 752 nM
2 | CCc1c(F)ccc2cc(O)cc(-c3ncc4c(N5CCCC6(CCO6)C5)nc(OC[C@@H]5C[C@@H](F)CN5C)nc4c3F)c12 (some centres unmarked) [Compound 3a] | 141 nM
3 | CCc1c(F)ccc2cc(O)cc(-c3ncc4c(N5CCCC6(CCN6)C5)nc(OC[C@@]56CCCN5C[C@H](F)C6)nc4c3F)c12 (some centres unmarked) [Compound 4a] | > 1000 nM
4 | CCc1c(F)ccc2cc(O)cc(-c3ncc4c(N5CCC[C@@H](OC)C5)nc(OC[C@@]56CCCN5C[C@H](F)C6)nc4c3F)c12 [Compound 5a] | 652 nM
5 | CCc1c(F)ccc2cc(O)cc(-c3ncc4c(N5CC6CC(CO)(C6)C5)nc(OC[C@@]56CCCN5C[C@H](F)C6)nc4c3F)c12 [Compound 7a] | > 1000 nM
6 | CCc1c(F)ccc2cc(O)cc(-c3ncc4c(N5CCC[C@H]5C(=O)O)nc(OC[C@@]56CCCN5C[C@H](F)C6)nc4c3F)c12 [Compound 8] | > 1000 nM
7 | CCc1c(F)ccc2cc(O)cc(-c3ncc4c(N5C6CCC5COC6)nc(OC[C@@]56CCCN5C[C@H](F)C6)nc4c3F)c12 [Compound 12] | > 1000 nM
8 | CCc1c(F)ccc2cc(O)cc(-c3ncc4c(N5CC6CCC(C5)O6)nc(OC[C@@]56CCCN5C[C@H](F)C6)nc4c3F)c12 [Compound 13] | 979 nM
9 | CCc1c(F)ccc2cc(O)cc(-c3ncc4c(N5CCCC56COC6)nc(OC[C@@]56CCCN5C[C@H](F)C6)nc4c3F)c12 [Compound 14] | > 1000 nM
10 | CCc1c(F)ccc2cc(O)cc(-c3ncc4c(N5C6CCC5CC6)nc(OC[C@@]56CCCN5C[C@H](F)C6)nc4c3F)c12 [Compound 15] | > 1000 nM
11 | CCc1c(F)ccc2cc(O)cc(-c3ncc4c(N5CCC(C)(O)C5)nc(OC[C@@]56CCCN5C[C@H](F)C6)nc4c3F)c12 (some centres unmarked) [Compound 16] | > 1000 nM
12 | CCc1c(F)ccc2cc(O)cc(-c3ncc4c(N5C6CCCC5CC6)nc(OC[C@@]56CCCN5C[C@H](F)C6)nc4c3F)c12 [Compound 17] | > 1000 nM
13 | CCc1c(F)ccc2cc(O)cc(-c3ncc4c(N5CC(C)(O)C5)nc(OC[C@@]56CCCN5C[C@H](F)C6)nc4c3F)c12 [Compound 18] | > 10000 nM
14 | CCc1c(F)ccc2cc(O)cc(-c3ncc4c(N5CCCC5c5ccccc5)nc(OC[C@@]56CCCN5C[C@H](F)C6)nc4c3F)c12 (some centres unmarked) [Compound 19] | > 10000 nM
15 | CCc1c(F)ccc2cc(O)cc(-c3ncc4c(N5CCCC(c6ccccc6)C5)nc(OC[C@@]56CCCN5C[C@H](F)C6)nc4c3F)c12 (some centres unmarked) [Compound 20] | > 10000 nM
16 | CCc1c(F)ccc2cc(O)cc(-c3ncc4c(N5CC(F)(F)C[C@H]5CO)nc(OC[C@@]56CCCN5C[C@H](F)C6)nc4c3F)c12 [Compound 21] | > 10000 nM
17 | CCc1c(F)ccc2cc(O)cc(-c3ncc4c(N5CCC[C@@]5(C)CO)nc(OC[C@@]56CCCN5C[C@H](F)C6)nc4c3F)c12 [Compound 22] | > 10000 nM
18 | CCc1c(F)ccc2cc(O)cc(-c3ncc4c(N5CCC[C@H]5CN)nc(OC[C@@]56CCCN5C[C@H](F)C6)nc4c3F)c12 [Compound 23] | 1350 nM

Row | Compound | IC50
19 | CCc1c(F)ccc2cc(O)cc(-c3ncc4c(N5CCCC5c5cccnc5)nc(OC[C@@]56CCCN5C[C@H](F)C6)nc4c3F)c12 (some centres unmarked) [Compound 24] | > 10000 nM
20 | CCc1c(F)ccc2cc(O)cc(-c3ncc4c(N5CCCC(Cl)(CCO)C5)nc(OC[C@@]56CCCN5C[C@H](F)C6)nc4c3F)c12 (some centres unmarked) [Compound 26] | 1530 nM
21 | CCc1c(F)ccc2cc(O)cc(-c3ncc4c(N5C[C@@H]6C[C@@H](O)[C@H]5C6)nc(OC[C@@]56CCCN5C[C@H](F)C6)nc4c3F)c12 [Compound 27] | > 10000 nM
22 | CCc1c(F)ccc2cc(O)cc(-c3ncc4c(NC5CC6(CCC6)C5)nc(OC[C@@]56CCCN5C[C@H](F)C6)nc4c3F)c12 [Compound 28] | > 10000 nM
23 | CCc1c(F)ccc2cc(O)cc(-c3ncc4c(N5CC[C@@H](C(C)(C)O)C5)nc(OC[C@@]56CCCN5C[C@H](F)C6)nc4c3F)c12 [Compound 29] | > 10000 nM
24 | CCc1c(F)ccc2cc(O)cc(-c3ncc4c(N5CCC[C@H]5CN5CCCC5)nc(OC[C@@]56CCCN5C[C@H](F)C6)nc4c3F)c12 [Compound 30] | > 10000 nM
25 | CCc1c(F)ccc2cc(O)cc(-c3ncc4c(N5CCN(C(C)=O)[C@H](C)C5)nc(OC[C@@]56CCCN5C[C@H](F)C6)nc4c3F)c12 [Compound 31] | > 10000 nM
26 | CCc1c(F)ccc2cc(O)cc(-c3ncc4c(N5CC[C@@H](CO)C5)nc(OC[C@@]56CCCN5C[C@H](F)C6)nc4c3F)c12 [Compound 32] | > 1000 nM
27 | CCc1c(F)ccc2cc(O)cc(-c3ncc4c(N5C[C@@H](N)C[C@H]5CO)nc(OC[C@@]56CCCN5C[C@H](F)C6)nc4c3F)c12 [Compound 33] | > 1000 nM
28 | CCc1c(F)ccc2cc(O)cc(-c3ncc4c(N5CCN[C@H](C)C5)nc(OC[C@@]56CCCN5C[C@H](F)C6)nc4c3F)c12 [Compound 34] | > 1000 nM
29 | CCc1c(F)ccc2cc(O)cc(-c3ncc4c(N5C[C@@H]6C[C@H]5CO6)nc(OC[C@@]56CCCN5C[C@H](F)C6)nc4c3F)c12 [Compound 35] | > 1000 nM
30 | CCc1c(F)ccc2cc(O)cc(-c3ncc4c(N5CC6(CC(O)C6)C5)nc(OC[C@@]56CCCN5C[C@H](F)C6)nc4c3F)c12 [Compound 36] | > 1000 nM
31 | CCc1c(F)ccc2cc(O)cc(-c3ncc4c(N5C[C@H]6C[C@@H]5[C@@H](O)C6)nc(OC[C@@]56CCCN5C[C@H](F)C6)nc4c3F)c12 [Compound 37] | > 1000 nM
32 | CCc1c(F)ccc2cc(O)cc(-c3ncc4c(N5CCCC[C@@H](N)C5)nc(OC[C@@]56CCCN5C[C@H](F)C6)nc4c3F)c12 [Compound 38] | 163 nM
33 | CCc1c(F)ccc2cc(O)cc(-c3ncc4c(N5CC6CC(C6)C5)nc(OCC5(CN(C)C)CC5)nc4c3F)c12 [Compound 38a] | > 1000 nM
34 | CCc1c(F)ccc2cc(O)cc(-c3ncc4c(N5CCC6(CCCCC6)C5)nc(OC[C@@]56CCCN5C[C@H](F)C6)nc4c3F)c12 [Compound 40] | > 1000 nM
35 | CCc1c(F)ccc2cc(O)cc(-c3ncc4c(N5CCC6(CNC(=O)O6)C5)nc(OC[C@@]56CCCN5C[C@H](F)C6)nc4c3F)c12 (some centres unmarked) [Compound 43] | > 1000 nM
36 | CCc1c(F)ccc2cc(O)cc(-c3ncc4c(N5CC6(CC(=O)C6)C5)nc(OC[C@@]56CCCN5C[C@H](F)C6)nc4c3F)c12 [Compound 44] | > 1000 nM

Other lines, results leading:

Row | IC50 | Compound
37 | > 1000 nM | CCc1c(F)ccc2cc(O)cc(-c3ncc4c(N5CC6(CCO6)C5)nc(OC[C@@]56CCCN5C[C@H](F)C6)nc4c3F)c12 [Compound 6a]
38 | > 1000 nM | CCc1c(F)ccc2cc(O)cc(-c3ncc4c(N5CCCC6(CCO6)C5)nc(OC[C@H](C)OC)nc4c3F)c12 (some centres unmarked) [Compound 11a]
39 | 12.1 nM | CCc1c(F)ccc2cc(O)cc(-c3ncc4c(N5CCC[C@]6(CCO6)C5)nc(OCC5(CN6CCN(C)CC6)CC5)nc4c3F)c12 [Compound 12a]
40 | 13.2 nM | CCc1c(F)ccc2cc(O)cc(-c3ncc4c(N5CCC[C@]6(CCO6)C5)nc(OCC5(CN6CCC6)CC5)nc4c3F)c12 [Compound 13a]
41 | > 1000 nM | Cc1ccc2[nH]ncc2c1-c1ccc2c(N3CCC[C@]4(CCO4)C3)nc(OCC3(CN(C)C)CC3)nc2c1F [Compound 14a]
42 | 31.2 nM | CCc1c(F)ccc2cc(O)cc(-c3ncc4c(N5CCC[C@]6(CCO6)C5)nc(OCC5(CN6CCC7(CCC7)CC6)CC5)nc4c3F)c12 [Compound 23a]
43 | 639 nM | CN(C)CC1(COc2nc(N3CCC[C@]4(CCO4)C3)c3cnc(-c4cc(O)ccc4-c4cccs4)c(F)c3n2)CC1 [Compound 25a]
44 | 159 nM | CCc1c(F)ccc2cc(O)cc(-c3ncc4c(N5CCC[C@]6(CCO6)C5)nc(OCC5(CN6CC(F)(F)C6)CC5)nc4c3F)c12 [Compound 28a]
45 | 41.6 nM | CCc1c(F)ccc2cc(O)cc(-c3ncc4c(N5CCC[C@]6(CCO6)C5)nc(OCC5(CN6CCC(F)(F)CC6)CC5)nc4c3F)c12 [Compound 30a]
46 | 518 nM | CCc1c(F)ccc2cc(O)cc(-c3ncc4c(N5CCC[C@]6(CCO6)C5)nc(OCC5(CC(N)=O)CC5)nc4c3F)c12 [Compound 31a]
47 | 481 nM | CCc1c(F)ccc2cc(O)cc(-c3ncc4c(N(C)CC(C)(C)O)nc(OCC5(CN(C)C)CC5)nc4c3F)c12 [Compound 32a]
48 | > 1000 nM | CN(C)CC1(COc2nc(N3CCC[C@]4(CCO4)C3)c3cnc(-c4ccc(F)c5sc(N)c(C#N)c45)c(F)c3n2)CC1 [Compound 35a]
49 | > 1000 nM | C#Cc1c(F)ccc2cc(O)cc(-c3ncc4c(N5CC=CCC5)nc(OCC5(CN(C)C)CC5)nc4c3F)c12 [Compound 36a]
50 | 121 nM | CCc1c(F)ccc2cc(O)cc(-c3ncc4c(N5CCC[C@]6(CCO6)C5)nc(OCC5(N(C)C)CC5)nc4c3F)c12 [Compound 37a]
51 | > 1000 nM | CN(C)CC1(COc2nc(N3CCC[C@]4(CCO4)C3)c3cc(Cl)c(-c4ccc(F)c5sc(N)c(C#N)c45)c(F)c3n2)CC1 [Compound 39a]
52 | 424 nM | CCc1c(F)ccc2cc(O)cc(-c3ncc4c(N5CCCC(OC)CC5)nc(OCC5(CN(C)C)CC5)nc4c3F)c12 (centres unmarked) [Compound 40a]
53 | 14.2 nM | CCc1c(F)ccc2cc(O)cc(-c3ncc4c(N5CCC[C@]6(CCO6)C5)nc(OCC5(CN6CCC(F)C6)CC5)nc4c3F)c12 (some centres unmarked) [Compound 41a]
54 | > 1000 nM | CCc1c(F)ccc2cc(O)cc(-c3ncc4c(N5CCCC(C#N)CC5)nc(OCC5(CN(C)C)CC5)nc4c3F)c12 (centres unmarked) [Compound 42a]
55 | 557 nM | CCc1c(F)ccc2cc(O)cc(-c3ncc4c(N5CCCCCC5)nc(OCC5(CN(C)C)CC5)nc4c3F)c12 [Compound 43a]
56 | 234 nM | CCc1c(F)ccc2cc(O)cc(-c3ncc4c(N5CCCC(O)CC5)nc(OCC5(CN(C)C)CC5)nc4c3F)c12 (centres unmarked) [Compound 44a]
